Assay results taken from ChEMBL document CHEMBL3351973, “4(α-l-rhamnosyloxy)-benzyl isothiocyanate, a bioactive phytochemical that attenuates secondary damage in an experimental model of spinal cord injury” (Bioorg Med Chem, 2015).
Calls of active or inactive are those of the source.

What was measured:
Format in all cases: functional, organism-based
Set-up in all cases: dose 10 mg/kg
Mus musculus [1] = assay: Antiapoptotic activity in CD-1 mouse spinal cord injury model assessed as reduction in caspase expression at 10 mg/kg, ip measured on day 7 by Western blotting analysis relative to control
Mus musculus [2] = assay: Antiinflammatory activity in CD-1 mouse spinal cord injury model assessed as reduction of NF-kappaB-p65 level at 10 mg/kg, ip measured on day 7 by immunohistological analysis relative to control
Mus musculus [3] = assay: Antiinflammatory activity in CD-1 mouse spinal cord injury model assessed as IkappaB-alpha expression at 10 mg/kg, ip measured on day 7 by Western blotting analysis relative to control
Mus musculus [4] = assay: Antiinflammatory activity in CD-1 mouse spinal cord injury model assessed as reduction in iNOS expression at 10 mg/kg, ip measured on day 7 by immunohistological analysis relative to control
Mus musculus [5] = assay: Antiapoptotic activity in CD-1 mouse spinal cord injury model assessed as increase in Bcl-2 level at 10 mg/kg, ip measured on day 7 by immunohistological analysis relative to control
Mus musculus [6] = assay: Antiapoptotic activity in CD-1 mouse spinal cord injury model assessed as reduction in Bax level at 10 mg/kg, ip measured on day 7 by immunohistological analysis relative to control
Mus musculus [7] = assay: Protection against injury in CD-1 mouse spinal cord injury model assessed as edema at 10 mg/kg, ip measured on day 7 by hematoxylin/eosin staining-based assay relative to control
Mus musculus [8] = assay: Protection against injury in CD-1 mouse spinal cord injury model assessed as distribution of reticular fibre at 10 mg/kg, ip measured on day 7 by hematoxylin/eosin staining-based assay relative to control
Mus musculus [9] = assay: Neuroprotective activity in CD-1 mouse spinal cord injury model assessed as alteration of white matter at 10 mg/kg, ip measured on day 7 by hematoxylin/eosin staining-based assay relative to control
Mus musculus [10] = assay: Protection against injury in CD-1 mouse spinal cord injury model assessed as infiltration of leukocyte at 10 mg/kg, ip measured on day 7 by hematoxylin/eosin staining-based assay relative to control

Measured: Activity

C[C@@H]1O[C@@H](Oc2ccc(CN=C=S)cc2)[C@H](O)[C@H](O)[C@H]1O
active: all assays above
